According to paper PMC6005845 (Frontiers in Cardiovascular Medicine, 2018):

Experiments:
APOE*3Leiden.CETP mice [1] = assay: Histological assessment of atherosclerosis (lesion area, number, severity) in the aortic root; type: in vivo; conditions: 16 weeks
Description: Significance of differences between the groups was calculated in SPSS 22.0 for Windows. Normally distributed data was tested parametrically using a one-way ANOVA for multiple comparisons with a Dunnett’s post-hoc test. Non-parametric data were compared separately with a Mann-Whitney U test with adjusted rejection criteria using a Bonferroni-Holm correction. Correlations between lesion size (after square root transformation) and cholesterol exposure were calculated with a Pearson’s correlation test. All groups were compared with the control group. Values are presented as means ± SD and p-values < 0.05 were considered statistically significant.
Pouwer et al Supplementary material
Dickinson, Franklin Lakes, New Jersey, USA). […]
Histological assessment of lung morphology and atherosclerosis […]
The caudal lung was cross […]
direction of the aortic arch. […]
(§1) valve leaflets and smooth muscle cells instead of collagen-rich tissue, serial cross sections (5 µm thick with intervals of 50 µm) were taken and mounted on AAS-coated slides. These sections were stained with hematoxylin-phloxine-saffron (HPS) for histological analysis. For each mouse, atherosclerosis was measured in 4 subsequent cross sections. Each section consisted of 3 segments. The average total lesion area per cross section was then calculated20
(§2) 22. For determination of lesion severity the lesions were classified into five categories according to the American Heart Association classification 23: 0) no lesion I) early fatty streak, II) regular fatty streak, III) mild plaque, IV) moderate plaque, and V) severe plaque. The percentage of each lesion type was calculated, where type I-III lesions were classified as mild lesions and type IV-V lesions were classified as severe lesions 20 22. In the aortic root, lesion composition was determined for the severe lesions (type IV -V) as a percentage of lesion area after immunostaining with anti-human alpha-actin (1:400; PROGEN Biotechnik GmbH, Germany) for smooth muscle cells (SMC), and anti -mouse Mac-3 (1:50; BD Pharmingen, the Netherlands) for macrophages followed by Sirius Red staining. After Sirius Red staining for collagen, color intensity was determined in ImageJ and the used threshold was confirmed by evaluation of the sections under polarized light 24. Necrotic area and cholesterol clefts were measured after HPS staining13 20 22. Lesion stability index was calculated as described pre viously13 20. In each segment used for lesion quantification, the number of monocytes adhering to the endothelium were counted after immunostaining with AIA 31240 antibody (1:1000; Accurate Chemical and Scientific, New York, New York, USA) 14 20. […]

liver = assay: Liver gene expression analysis (RNA sequencing) and pathway analysis; type: in vivo, APOE*3Leiden.CETP mice; conditions: vs control, Figure 7: imatinib 150, nilotinib 30, ponatinib 10 mg/kg
Description: To find early molecular signatures of other clinically relevant processes induced by the anti-CML drugs, gene expression and pathway analysis was performed in the liver as the central organ in lipid metabolism and synthesis of coagulation factors. To identify drug-specific molecular responses and overlap between the various treatments, the total number of differentially expressed genes (DEG) was assessed and a Venn-diagram was constructed comprising all DEG compared to control group. […]
Messenger RNA was isolated from liver of 8 mice per group, using the NEBNext Ultra RNA
sample Prep Kit. After fragmentation of the mRNA, cDNA synthesis was performed. The

ALT = assay: Plasma ALT (pooled samples); conditions: after 16 weeks
APOE*3Leiden.CETP mice [2] = assay: Blood pressure and heart rate (tail cuff); type: in vivo; conditions: after 2 and 15 weeks of treatment, all dose groups, vs control
Text: (§3) Pouwer et al Supplementary material […]

AST = assay: Plasma AST (pooled samples); conditions: after 16 weeks
[3] = system: peripheral blood mononuclear cells; assay: Flow cytometric analysis (FACS) of PBMCs and monocyte subsets; conditions: for CD11b+Ly6Chigh / CD11b+Ly6Clow / Number of live/single PBMCs per mL blood: after 12 weeks; for change of number of circulating PBMCs vs control: at 12 weeks
APOE*3Leiden.CETP mice [4] = assay: Plaque composition and lesion stability index in severe (type IV-V) lesions; type: in vivo; conditions: 16 weeks
Description: The macrophage and necrosis content were quantified as factors that decrease plaque stability, and smooth muscle cell area in the cap of the lesions and collagen as factors that improve plaque stability ([17, 35, 36]) (Figure 6A). […]
as §1, with “µm” for “valve leaflets and smooth muscle cells instead of collagen-rich tissue, serial cross sections (5 µm”
as §2, with “20.” for “20. In each segment used for lesion quantification, the number of monocytes adhering to the endothelium were counted after immunostaining with AIA 31240 antibody (1:1000; Accurate Chemical and Scientific, New York, New York, USA) 14 20.”

SAA = assay: Plasma SAA ELISA; type: in vivo, APOE*3Leiden.CETP mice; conditions: for SAA: after 16 weeks of treatment
Text: as §3
The inflammatory markers SAA, E-selectin and MCP-
according to the manufacturer’s instruction. […]

## Cc1cn(-c2cc(NC(=O)c3ccc(C)c(Nc4nccc(-c5cccnc5)n4)c3)cc(C(F)(F)F)c2)cn1 [Nilotinib, nilotinib]
APOE*3Leiden.CETP mice [1]; 10 and 30 mg/kg QD
  effect on atherosclerotic lesion area: not affected
liver
  gene expression of F5: down-regulation
  gene expression of F9: down-regulation
  gene expression of Protein S: down-regulation
  gene expression of Serpina1 (PAI-1): up-regulated
ALT; 10 mg/kg
  ALT: 64 U/L
ALT; 30 mg/kg
  ALT: 81 U/L
APOE*3Leiden.CETP mice [2]
  effect on heart rate: not affected
  effect on systolic blood pressure (SBP): not affected
AST; 10 mg/kg
  AST: 210 U/L
AST; 30 mg/kg
  AST: 221 U/L
[3]; 10 mg/kg
  CD11b+Ly6Chigh: 27.5 ± 4.3 % of monocyte population
  CD11b+Ly6Clow: 61.4 ± 4.8 % of monocyte population
  Number of live/single PBMCs per mL blood: 6.5 ± 2.4 *106 /mL
[3]; 30 mg/kg
  CD11b+Ly6Chigh: 11.4 ± 3.8 % of monocyte population
  CD11b+Ly6Clow: 73.2 ± 4.9 % of monocyte population
  Number of live/single PBMCs per mL blood: 6.4 ± 1.4 *106 /mL
APOE*3Leiden.CETP mice [4]; 10 mg/kg, p = 0.003
  change of collagen content vs control: −32%
  change of lesion stability index vs control: −43%
SAA; 10 mg/kg QD
  SAA: 10.6 ± 1.0 µg/mL
SAA; 30 mg/kg QD
  SAA: 10.6 ± 1.1 µg/mL

## Cc1ccc(C(=O)Nc2ccc(CN3CCN(C)CC3)c(C(F)(F)F)c2)cc1C#Cc1cnc2cccnn12 [Ponatinib, ponatinib]
APOE*3Leiden.CETP mice [1]; 3 mg/kg QD, p = 0.002
  reduction of atherosclerotic lesion area per cross-section vs control: 52%
APOE*3Leiden.CETP mice [1]; 10 mg/kg QD, p < 0.01 (Figure 4B)
  change of lesion severity, mild lesions (type I-III): +64%
APOE*3Leiden.CETP mice [1]; 10 mg/kg QD, p = 0.006
  reduction of atherosclerotic lesion area per cross-section vs control: 48%
liver
  gene expression of F7: increased
  gene expression of Klkb1: increased
  gene expression of Kng1a: increased
  gene expression of Tpa: decreased
  gene expression of Upa: decreased
ALT; 3 mg/kg
  ALT: 44 U/L
ALT; 10 mg/kg
  ALT: 31 U/L
APOE*3Leiden.CETP mice [2]
  effect on heart rate: not affected
  effect on systolic blood pressure (SBP): not affected
AST; 3 mg/kg
  AST: 196 U/L
AST; 10 mg/kg
  AST: 207 U/L
[3]; 3 mg/kg
  CD11b+Ly6Clow: 58.4 ± 2.5 % of monocyte population
  Number of live/single PBMCs per mL blood: 7.1 ± 1.7 *106 /mL
[3]; 10 mg/kg QD (high-dose), p = 0.003
  change of number of circulating PBMCs vs control: −44%
[3]; 10 mg/kg
  CD11b+Ly6Clow: 69.1 ± 6.4 % of monocyte population
  Number of live/single PBMCs per mL blood: 3.8 ± 0.8 *106 /mL
APOE*3Leiden.CETP mice [4]; 3 mg/kg
  effect on plaque stability: without affecting plaque stability
APOE*3Leiden.CETP mice [4]; 3 mg/kg, p = 0.001
  change of necrotic core content vs control: −58%
SAA; 3 mg/kg QD
  SAA: 10.4 ± 1.9 µg/mL
SAA; 10 mg/kg QD
  SAA: 15.2 ± 21.1 µg/mL

## Cc1ccc(NC(=O)c2ccc(CN3CCN(C)CC3)cc2)cc1Nc1nccc(-c2cccnc2)n1 [Imatinib, imatinib]
APOE*3Leiden.CETP mice [1]; 150 mg/kg BID, p < 0.001
  change of total lesion area that consisted of severe (type IV–V) lesions vs control: −56%
  reduction of atherosclerotic lesion area per cross-section vs control: 78%
liver
  gene expression of Protein C: up-regulated
  gene expression of Protein S: down-regulated
  gene expression of Serpina1 (PAI-1): up-regulated
  gene expression of Tpa: down-regulated
  gene expression of Upa: down-regulated
ALT; 150 mg/kg BID
  ALT: 31 U/L
APOE*3Leiden.CETP mice [2]
  effect on heart rate: not affected
  effect on systolic blood pressure (SBP): not affected
AST; 150 mg/kg BID
  AST: 147 U/L
[3]; 150 mg/kg BID
  CD11b+Ly6Chigh: 11.0 ± 3.6 % of monocyte population
  CD11b+Ly6Clow: 69.1 ± 5.9 % of monocyte population
  Number of live/single PBMCs per mL blood: 3.9 ± 1.3 *106 /mL
[3]; 150 mg/kg BID, p = 0.006
  change of number of circulating PBMCs vs control: −42%
APOE*3Leiden.CETP mice [4]; 150 mg/kg BID, p = 0.004
  increase of collagen content of severe lesions vs control: 47%
APOE*3Leiden.CETP mice [4]; 150 mg/kg BID, p = 0.050 (tended to increase)
  change of αSMC content vs control: +38%
APOE*3Leiden.CETP mice [4]; 150 mg/kg BID, type IV-V lesions
  collagen content (percentage of total plaque area): 62 ± 17%
SAA; 150 mg/kg BID, 16 weeks
  effect on plasma SAA: None of the inflammatory markers were significantly altered
SAA; 150 mg/kg BID
  SAA: 9.6 ± 0.5 µg/mL
